According to US20230317203A1, “SCREENING METHOD” (University of Leeds, priority 2022, published 2023):

Columns and labels:
[1] = biological target: BRISC Abraxas2 Thr140Ala (Homo sapiens, UniProt P46736+Q15018+Q9NXR7, T140A); test: IQF DUB assay, BRISC mutant Abraxas2 Thr140Ala; assay type: biochemical; conditions: FIG. 4B
Description: (§1) The four-subunit human BRISC (full-length (FL) and MERIT40ΔN, Abraxas2ΔC) complex was cloned using the MultiBac system and co-expressed in Spodoptera frugiperda (Sf9) insect cells^32. BRISC mutants were cloned into pFastBac vectors in the Bac-to-Bac system (ThermoFisher), baculoviruses generated in Sf9 cells and used for co-infection of Trichoplusia ni (Tni) cells. All BRISC complexes were purified as previously described^12,13.
(§2) BRISC complexes were tested for activity in DUB reaction buffer containing 50 mM HEPES-NaOH pH 7.0, 100 mM NaCl, 0.1 mg/mL BSA, 1 mM DTT, and 0.003% Brij-35. […] Inhibitors were assayed at concentrations up to 200 μM. […] DUB activity was measured using internally quenched fluorescent (IQF) K63-linked diUb (Lifesensors, catalogue number: DU6303) at 50 or 100 nM. Cleaved diUb was monitored by measuring fluorescence intensity (Ex. 540 nm, Em. 580 nm; dichroic mirror 560 nm). Fluorescence intensity was measured every minute for 30 minutes at 30° C. Fluorescence intensity units for the first 10 minutes were plotted against time to generate a linear reaction progress curve, where the initial velocity (v0) corresponds to the gradient of the curve. IC50 values were calculated using the GraphPad Prism (v8.0) built-in dose-response equation for inhibitor concentration vs. response (variable slope). […]

[2] = biological target: BRISC Abraxas2 Thr135Lys (Homo sapiens, UniProt P46736+Q15018+Q9NXR7, T135K); test: IQF DUB assay, BRISC mutant Abraxas2 Thr135Lys; assay type: biochemical; conditions: FIG. 4B
Description: as §1, §2

[3] = biological target: BRISC BRCC36 Ile158Lys (Homo sapiens, UniProt P46736+Q15018+Q9NXR7, I158K); test: Mass photometry, BRISC mutant BRCC36 Ile158Lys; assay type: binding; conditions: BRCC36 Ile158Lys (inactive mutant)
Description: (§3) Microscope coverslips were prepared as previously described^33. All mass photometry experiments were performed using a One^MP mass photometer (Refeyn Ltd, Oxford, UK). For preliminary BRISC-inhibitor measurements, 1 μM BRISC(FL) was mixed with either DMSO or inhibitor at 330 μM and incubated for 15 minutes on ice. Prior to MP measurement, the BRISC-inhibitor mix was diluted in gel filtration buffer (25 mM HEPES, 150 mM NaCl, 1 mM TCEP) for a final concentration of BRISC at 10 nM (0.05% DMSO). 12 μL of this dilution was used for the final MP measurement, following autofocus stabilisation. […] Movies were recorded for 60 seconds using AcquireMP (Refeyn, UK), and were processed using DiscoverMP (Refeyn, UK). […] The relative amount of each species is calculated as the area of each Gaussian, where a refers to the standard deviation of the fitted Gaussian. […] Curves were fitted and EC50 values were calculated using the GraphPad Prism (v8.0) built-in dose-response equation for concentration of agonist vs. response (variable slope).
(§4) The cryo-EM structures of BRISC bound to molecular glues allowed picking of selective mutations to probe the BRISC-compound interaction site and to assess the contribution of each interacting residue for inhibition and gluing activity. […] For the remaining active 13 mutants (FIGS. 11C, 11D) inhibitor IC50s were calculated against BRISC DUB activity. […]

[4] = biological target: BRISC BRCC36 Thr128Pro (Homo sapiens, UniProt P46736+Q15018+Q9NXR7, T128P); test: Mass photometry, BRISC mutant BRCC36 Thr128Pro; assay type: binding; conditions: BRCC36 Thr128Pro (inactive mutant)
Description: as §3, §4

[5] = biological target: T1, BRISC (Homo sapiens, UniProt P46736+Q15018+Q9NXR7); test: IQF K63-linked diUb DUB activity assay, BRISC; assay type: biochemical; set-up: made in house; host or cells: Spodoptera frugiperda (Sf9) insect cells; conditions: IQF assay, fluorescent di-ubiquitin substrate, FIG. 1F
Description: BRISC complexes were tested for activity in DUB reaction buffer containing 50 mM HEPES-NaOH pH 7.0, 100 mM NaCl, 0.1 mg/mL BSA, 1 mM DTT, and 0.003% Brij-35. […] Inhibitors were assayed at concentrations up to 200 μM. 20 μL enzyme reactions were carried out in 384-well black flat-bottom low flange plates (Corning; 35373). DUB activity was measured using internally quenched fluorescent (IQF) K63-linked diUb (Lifesensors, catalogue number: DU6303) at 50 or 100 nM. Cleaved diUb was monitored by measuring fluorescence intensity (Ex. 540 nm, Em. 580 nm; dichroic mirror 560 nm). Fluorescence intensity was measured every minute for 30 minutes at 30° C. Fluorescence intensity units for the first 10 minutes were plotted against time to generate a linear reaction progress curve, where the initial velocity (v0) corresponds to the gradient of the curve. IC50 values were calculated using the GraphPad Prism (v8.0) built-in dose-response equation for inhibitor concentration vs. response (variable slope).
A high throughput biochemical screen was designed to identify inhibitors of BRISC, based on the ability of small molecules to inhibit BRISC cleavage of a K63-linked di-ubiquitin substrate. The di-ubiquitin substrate is designed with a fluorescent TAMRA dye on the proximal ubiquitin moiety and fluorescence quencher on the distal ubiquitin molecule (FIG. 1A). Upon isopeptidase bond cleavage, fluorescence is detected, enabling continuous fluorescent readout of deubiquitylase activity over time (FIG. 1A). The assay conditions were optimised and used to test an in-house compound library comprising of ˜300 published and custom-made kinase inhibitors. From this screen, two hits were identified, compounds AT7519 (well H20) and YM201636 (well P12) (FIG. 1B). The specificity of these compounds was assessed against the broad-spectrum DUB ubiquitin-specific protease-2 (USP2) and the serine protease trypsin which cleave K63-Ub substrate under the same conditions. […] UV-Vis spectroscopy analyses of the compound in well H20 used in the screen compared to the Synkinase and Sellechem AT7519 compounds identified an additional peak in the H20 spectra (FIG. 5C). […] The synthesis of the two isomers was confirmed using mass spectrometry fragmentation analyses (FIG. 5E) and the inhibitory effect of the isomers was tested against BRISC.

[6] = biological target: T1, BRISC; test: BRISC-mediated tetraubiquitin chain cleavage by Western blotting; assay type: biochemical; set-up: made in house; host or cells: Spodoptera frugiperda (Sf9) insect cells; conditions: K63-linked Ub4, Western blot, FIG. 6B
Text: The potency of these analogues was characterised in the IQF assay with a fluorescent di-ubiquitin substrate. […] We confirmed the ability of these inhibitors to block BRISC-mediated tetraubiquitin chain cleavage by Western blotting (FIG. 6B).

Compound: O=C(NC1C2CNCC21)c1nn(C(=O)c2c(Cl)cccc2Cl)cc1NC(=O)c1c(Cl)cccc1Cl (stereo not drawn) [FX-171-C]
- IC50 higher than BRISC WT [1]: 10 fold
- inhibitor sensitivity of mutant [2]: no effect on inhibitor sensitivity
- inhibitor-induced dimerisation [3]: reduction in the inhibitor-induced dimerisation effect
- inhibitor-induced dimerisation [4]: still formed a dimer
- IC50 compared to JMS-175-2 [5]: slightly improved
- inhibition of tetraubiquitin chain cleavage [6]: Dose-dependent inhibition
